Patent US11655235B2, “Pyrrolidine and piperidine compounds” (YUHAN CORPORATION, priority 2019, dated 2023)
Values joined by “and” are separate entries in the source; they are usually repeats but may differ in a detail not shown here. Identical values can stand only once.

target: T1, recombinant human PREP (Homo sapiens, UniProt P48147); assay: PREP inhibition, fluorogenic substrate Z-Gly-Pro-AMC; format: biochemical; details: Inhibitory Activity (IC50, nM) PREP, recombinant human PREP
T1 construct: purchased R&D System
T1 sequence (P48147 1-710): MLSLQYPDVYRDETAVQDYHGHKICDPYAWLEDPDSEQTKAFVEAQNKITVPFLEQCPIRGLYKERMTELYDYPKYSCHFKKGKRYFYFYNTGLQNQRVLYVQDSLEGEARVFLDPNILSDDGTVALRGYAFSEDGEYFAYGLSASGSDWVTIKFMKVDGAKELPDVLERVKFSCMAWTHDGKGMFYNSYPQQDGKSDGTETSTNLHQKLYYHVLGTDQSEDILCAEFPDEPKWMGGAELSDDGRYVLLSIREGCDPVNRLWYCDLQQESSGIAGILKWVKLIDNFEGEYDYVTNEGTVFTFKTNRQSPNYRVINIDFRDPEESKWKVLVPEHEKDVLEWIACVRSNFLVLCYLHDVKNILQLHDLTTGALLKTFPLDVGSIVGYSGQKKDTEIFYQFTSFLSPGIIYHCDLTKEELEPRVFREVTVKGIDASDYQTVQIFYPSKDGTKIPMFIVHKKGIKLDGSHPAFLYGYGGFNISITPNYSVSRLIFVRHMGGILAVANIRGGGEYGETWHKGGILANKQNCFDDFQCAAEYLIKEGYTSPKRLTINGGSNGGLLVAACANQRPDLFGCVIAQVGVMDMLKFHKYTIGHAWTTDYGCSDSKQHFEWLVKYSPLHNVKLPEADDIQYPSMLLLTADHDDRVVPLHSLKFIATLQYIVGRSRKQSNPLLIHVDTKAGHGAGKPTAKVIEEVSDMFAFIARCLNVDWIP
Summary of the method: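 Enzyme per reaction: 50 ng DPP9, 20 ng DPP8, 10 ng each DPP7 and PREP. Compounds were serially diluted (8 points, up to 0.5% DMSO) and incubated at 25 °C.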

Structure (SMILES) | IC50
N#C[C@@H]1C[C@H](F)CN1C(=O)CN1CC[C@H](Nc2cccc3ncccc23)C1 [Example 228, (2S,4S)-4-fluoro-1-[2-[(3S)-3-(5-quinolylamino)pyrrolidin-1-yl]acetyl]pyrrolidine-2-carbonitrile] | 4290 nM
N#Cc1cnc2cccc(N[C@H]3CCN(CC(=O)N4CCC[C@H]4C#N)C3)c2c1 [Example 232, 5-[[(3S)-1-[2-oxo-2-[(2S)-2-cyanopyrrolidin-1-yl]ethyl]pyrrolidin-3-yl]amino]quinoline-3-carbonitrile] | 13700 nM
COc1cnc2cccc(N[C@H]3CCN(CC(=O)N4CCC[C@H]4C#N)C3)c2c1 [Example 233, (2S)-1-[2-[(3S)-3-[(3-methoxy-5-quinolyl)amino]pyrrolidin-1-yl]acetyl]pyrrolidine-2-carbonitrile] | 11500 nM
N#C[C@@H]1CCCN1C(=O)CN1CC[C@H](Nc2ccc(F)c3ncccc23)C1 [Example 244, (2S)-1-[2-[(3S)-3-[(8-fluoro-5-quinolyl)amino]pyrrolidin-1-yl]acetyl]pyrrolidine-2-carbonitrile] | 11100 nM
N#C[C@@H]1CCCN1C(=O)CN1CC[C@H](Nc2ccc(C(F)(F)F)c3ncccc23)C1 [Example 245, (2S)-1-[2-[(3S)-3-[[8-(trifluoromethyl)-5-quinolyl]amino]pyrrolidin-1-yl]acetyl]pyrrolidine-2-carbonitrile] | 9470 nM
N#Cc1ccc(N[C@H]2CCN(CC(=O)N3CCC[C@H]3C#N)C2)c2cccnc12 [Example 247, 5-[[(3S)-1-[2-oxo-2-[(2S)-2-cyanopyrrolidin-1-yl]ethyl]pyrrolidin-3-yl]amino]quinoline-8-carbonitrile] | > 10000 nM
N#C[C@@H]1C[C@H](F)CN1C(=O)CN1CC[C@H](Nc2cccc3ncc(F)cc23)C1 [Example 255, (2S,4S)-4-fluoro-1-[2-[(3S)-3-[(3-fluoro-5-quinolyl)amino]pyrrolidin-1-yl]acetyl]pyrrolidine-2-carbonitrile] | 2210 nM
COc1ccc(N[C@H]2CCN(CC(=O)N3C[C@@H](F)C[C@H]3C#N)C2)c2cccnc12 [Example 263, (2S,4S)-4-fluoro-1-[2-[(3S)-3-[(8-methoxy-5-quinolyl)amino]pyrrolidin-1-yl]acetyl]pyrrolidine-2-carbonitrile] | 3470 nM
N#C[C@@H]1C[C@H](F)CN1C(=O)CN1CC[C@H](Nc2ccc(OC(F)(F)F)c3ncccc23)C1 [Example 266, (2S,4S)-4-fluoro-1-[2-[(3S)-3-[[8-(trifluoromethoxy)-5-quinolyl]amino]pyrrolidin-1-yl]acetyl]pyrrolidine-2-carbonitrile] | 3170 nM
N#C[C@@H]1C[C@H](F)CN1C(=O)CN1CC[C@H](Nc2ccc(OCc3ccccc3)c3ncccc23)C1 [Example 268, (2S,4S)-4-fluoro-1-[2-[(3S)-3-[(8-benzyloxy-5-quinolyl)amino]pyrrolidin-1-yl]acetyl]pyrrolidine-2-carbonitrile] | 3520 nM
N#C[C@@H]1C[C@H](F)CN1C(=O)CN1CCC(Nc2ccc(C(F)(F)F)c3ncccc23)CC1 [Example 334, (2S,4S)-4-fluoro-1-[2-[4-[[8-(trifluoromethyl)-5-quinolyl]amino]-1-piperidyl]acetyl]pyrrolidine-2-carbonitrile] | 2300 nM and 2780 nM
N#C[C@@H]1C[C@H](F)CN1C(=O)CN1CCC(Nc2ccc(OC(F)(F)F)c3ncccc23)CC1 [Example 347, (2S,4S)-4-fluoro-1-[2-[4-[[8-(trifluoromethoxy)-5-quinolyl]amino]-1-piperidyl]acetyl]pyrrolidine-2-carbonitrile] | 4580 nM
COc1cnc2cccc(NC3CCN(CC(=O)N4C[C@@H](F)C[C@H]4C#N)CC3)c2c1 [Example 348, (2S,4S)-4-fluoro-1-[2-[4-[(3-methoxy-5-quinolyl)amino]-1-piperidyl]acetyl]pyrrolidine-2-carbonitrile] | 10000 nM
N#C[C@@H]1C[C@H](F)CN1C(=O)CN1CCC(Nc2cccc3ncc(F)cc23)CC1 [Example 349, (2S,4S)-4-fluoro-1-[2-[4-[(3-fluoro-5-quinolyl)amino]-1-piperidyl]acetyl]pyrrolidine-2-carbonitrile] | 5200 nM
N#C[C@@H]1C[C@H](F)CN1C(=O)CN1CCC(Nc2cccc3cnc(Cl)cc23)CC1 [Example 352, (2S,4S)-1-[2-[4-[(3-chloro-5-isoquinolyl)amino]-1-piperidyl]acetyl]-4-fluoro-pyrrolidine-2-carbonitrile] | 10700 nM
COc1cc2c(NC3CCN(CC(=O)N4C[C@@H](F)C[C@H]4C#N)CC3)cccc2cn1 [Example 355, (2S,4S)-4-fluoro-1-[2-[4-[(3-methoxy-5-isoquinolyl)amino]-1-piperidyl]acetyl]pyrrolidine-2-carbonitrile] | 14200 nM
Cc1ccc2nccc(OC3CCN(CC(=O)N4C[C@@H](F)C[C@H]4C#N)CC3)c2c1 [Example 410, (2S,4S)-4-fluoro-1-[2-[4-[(6-methyl-4-quinolyl)oxy]-1-piperidyl]acetyl]pyrrolidine-2-carbonitrile] | 3170 nM
